This note sets out measurements from patent publication US6096770A, “Anthranilic acid analogs” (American Home Products Corporation, priority 1998, dated 2000).

Like-named read-outs stand apart in the source and are kept apart here.

Test [1] deals with Isolated Rat Bladder Strips. Nature of the test: Inhibition of Contractions in Isolated Rat Bladder Strips (15 mM KCl-enhanced contractile activity). The test is classed as tissue-based, Sprague-Dawley rats. The note with it: for IC50: 0.5 h, 15 mM KCl, 37 deg. C., pH 7.4, 30 minute challenge, read-out: IC50 Bladder (B): concentration required to elicit 50% inhibition of pre-drug contractile activity. As for the experimental part:
Sprague-Dawley rats (150-200 g) are rendered unconscious by CO2 asphyxiation and then euthanized by cervical dislocation. […] The bladder is opened and then cut into strips 1-2 mm in width and 7-10 mm in length. The strips are subsequently suspended in a 10 mL tissue bath under an initial resting tension of 1.5 g. The strips are held in place by two surgical clips one of which is attached to a fixed hook while the other is attached to an isometric force transducer. […] The carbachol is then washed out and the tissue allowed to relax to its resting level of activity. Following a further 30 min period of recovery an additional 15 mM KCl are introduced into the tissue bath. […] Following stabilization of this enhanced level of contractile activity, incremental increases in the concentration of test compound or vehicle are introduced into the tissue bath. Contractile activity is measured for each compound or vehicle concentration during the last minute of a 30 minute challenge.

Test [2] relates to Aorta. The test can be described thus: Inhibition of contractions in aorta (indication of selectivity, Table I). The class given is cell-based. The note with it: for IC50 (A)/IC50 (B): selectivity ratio aorta / bladder.

In the case of `O=C(Nc1ccccc1C(=O)O)C1=C(c2ccc(C(F)(F)F)cc2)CCC1` [Example 1, 2-{[2-(4-Trifluoromethyl-phenyl)-cyclopent-1-enecarbonyl]-amino}-benzoic acid], the IC50 in test [1] (isolated rat bladder strips) was 11 ± 4.04 µM.

Regarding `O=C(O)c1ccccc1NC(=O)c1ncoc1-c1ccc(C(F)(F)F)cc1` [Example 2, 2-{[5-(4-Trifluoromethyl-phenyl)-oxazole-4-carbonyl]-amino}-benzoic acid], the IC50 in test [1] (isolated rat bladder strips) amounted to 17.9 ± 5.8 µM.

Consider `O=C([O-])c1ccccc1NC(=O)c1ncoc1-c1ccc(C(F)(F)F)cc1.[Li+]` [Example 3, 2-{[5-(4-Trifluoromethyl-phenyl)-oxazole-4-carbonyl]-amino}-benzoic acid lithium salt], for which, in test [2], the IC50 is 7.35 ± 0.25 µM and the “IC50 (A)/IC50 (B)” value came out at 0.42. Besides, the IC50 in test [1] (Rattus norvegicus, pH 7.4, isolated rat bladder strips) amounted to 17.5 ± 12.4 µM.

On to `Cc1noc(-c2ccc(C(F)(F)F)cc2)c1C(=O)Nc1ccccc1C(=O)O` [Example 4, 2-{[3-Methyl-5-(4-trifluoromethyl-phenyl)-isoxazole-4-carbonyl]-amino}-benzoic acid], for which the IC50 in test [1] (isolated rat bladder strips) came out at 11.9 ± 3.95 µM.

For the compound `COc1ccc(/C=C/C(=O)Nc2ccccc2C(=O)O)cc1OC` [Tranilast, reference compound], the “IC50 (A)/IC50 (B)” value in test [2] amounted to 1.08. Also, the “potency and bladder selectivity as smooth muscle relaxant (in words)” value in test [1] (in vitro, Table 1) is recorded as “not to be a potent or bladder selective smooth muscle relaxant”.
